The values below come from patent US12661415B2, “Isoindolinone compounds and imaging agents for imaging Huntingtin protein” (CHDI Foundation, Inc., priority 2021, dated 2026).

Series [1] in a line: Unbound brain fraction (fu,brain) in mouse brain by equilibrium dialysis. It counts as in vitro ADME. Particulars: 20% mouse brain homogenate, 5 μM, equilibrium dialysis 6 h at 37° C., average of triplicate. The method, then:
Compounds were tested for unbounded brain fraction (or free fraction in brain, fu,brain). It is an accepted standard in the CNS PET imaging field that compounds with low unbound fraction in brain (<5%) likely have high non-specific binding background that is undesirable for the detection of target binding. As a result, fu,brain is an important property in the design of PET ligands for brain imaging [see Zhang et al., Design and selection parameters to accelerate the discovery of novel central nervous system positron emission tomography (PET) ligands and their application in the development of a novel phosphodiesterase 2A PET ligand. J Med Chem 2013, 56 (11), 4568-79; Liu et al., Imaging Mutant Huntingtin Aggregates: Development of a Potential PET Ligand. J Med Chem 2020, 63 (15), 8608-8633].
Determining fu,brain in Mouse Brain by Equilibrium Dialysis. Dialysis membranes (12-14 kDa) (HTDialysis, Connecticut) were soaked in phosphate buffer (10 mM potassium phosphate and 0.8% sodium chloride buffer, pH 7.4 at 37° C.) for a minimum of 1 h, at this time ethanol was added (final concentration of 20% v/v) and membranes continued to soak for 30 min Mouse brain tissue was diluted in phosphate buffer in a […] (w/v) and homogenised using a Precellys 24 (Stretton Scientific, UK) to achieve a final concentration of 20% brain homogenate.
Test compounds prepared as DMSO stocks at 0.5 mM are diluted into brain homogenate to achieve 5 μM final substrate concentration (1% DMSO) and a t=0 sample was prepared by sampling 50 μL of into 400 μL of quench solution (Acetonitrile containing 0.1% formic acid and sulfisoxazole/tolbutamide/imipramine/labetalol 200 nM). Samples were matrix matched with the addition of 50 μL of assay buffer. The HTDialysis Teflon blocks (HTDialysis, Connecticut) were assembled with pre-soaked membrane between each receiver and donor well and clamped in the stainless steel pressure plate (HTDialysis, Connecticut). The lower compartment (acceptor side) was dosed with 120 μL of buffer and the upper compartment (donor side) was dosed with 120 μL of compound in homogenate. All test compounds and controls were completed in triplicate. The HT dialysis plate was sealed and incubated for 6 h at 37° C. shaking at 250 rpm.
Following the incubation, 50 μL of sample was removed from all donor and acceptor wells and transferred into a quench plate containing 400 μL of quench solution. All samples were matrix matched with 50 μL of the alternate blank matrix. Analytical samples were diluted 1:1 with water using the Janus Robot and analysed by LC-MS/MS.
Peak areas of donor and acceptor compartments were compared to determine percent unbound (% fu) and the average of triplicate measurements was reported. Reference T0 sample was used to calculate sample recovery (%). Control compounds were compared with historic and literature values to ensure assay functionality.
Background: In equilibrium dialysis only unbound substance equilibrates across the membrane.

The target of series [2] is T1, MBP-HTT(1-89)Q46-His(6×) (Exon1-Q46) protein aggregates (Homo sapiens, UniProt P42858, INS38QQQQQQQQQQQQQQQQQQQQQQQQQ).
T1 construct: MBP-HTT(1-89)Q46-His(6×); His(6×) (C); made in house
Briefly: Exon1-Q46 radioligand binding assay (RBA). To be noted: aggregated Exon1-Q46 1 μM; 0.3 nM ligand [3H3-methyl]-5-((5-methoxypyridin-2-yl)methoxy)-2-(pyrazin-2-yl)benzo[d]oxazole; 60 minutes at 37° C.; read-out: Potency Range (IC50). The protocol:
Exon1-Q46 Radioligand Binding Assay
For radioligand binding assays (RBA) MBP-HTT(1-89)Q46-His(6×) (“Exon1-Q46”) protein was generated based on a previous publication (Scherzinger et al. Cell, Vol. 90, 549-558, Aug. 8, 1997). For experiments 30 μM MBP-Exon1-Q46 was incubated with 150 μg/mL thrombin in assay buffer (150 mM NaCl, 50 mM Tris pH 8.0) and 2 mM CaCl2 for 16 hours at 37° C. Aggregated Exon1-Q46 was pelleted by centrifugation for 5 minutes at 13,000 rpm in a bench top centrifuge and re-dissolved in the same volume of assay buffer. Test compounds were prepared by titration in DMSO at 11 concentrations from 63 μM to 2 nM. For the RBA, Exon1-Q46 protein aggregates and test compounds were pre-incubated in assay buffer for 20 minutes at room temperature, in 100 μL/well in a 96-well plate (pp, round bottom). Then, ligand was added in 50 μL/well and incubated for 60 minutes at 37° C. Final assay concentrations were 1 μM to 30 pM test compound, 1 μM Exon1-Q46 protein (equivalent monomer concentration) and 0.3 nM ligand [^3H3-methyl]-5-((5-methoxypyridin-2-yl)methoxy)-2-(pyrazin-2-yl)benzo[d]oxazole. Samples were transferred onto GF/B filter plates and washed 2× with 200 μL PBS using a Filtermate Harvester. After drying filter plates for 1 hour at 55° C., the back of the plates were sealed with foil and 30 μL/well scintillation fluid (Packard MicroScint 40) added, incubated for 15 minutes in the dark and counted in a MicroBeta reader. For analysis, replicate data from independent assay plates were normalized towards 0% and 100% inhibition using control wells of vehicle (0% inhibition) and 1 μM unlabelled [^3H3-methyl]-5-((5-methoxypyridin-2-yl)methoxy)-2-(pyrazin-2-yl)benzo[d]oxazole (100% inhibition). IC50 values were determined with a sigmoidal inhibition model with four variables (top, bottom, slope, IC50) in a global fit using the normalized replicate data.
The results for various example compounds were as provided in the table below (+++<100 nM; ++100−500 nM; +>500 nM; ND: not determined): […]

The term IC50 denotes the concentration at which inhibition is half-maximal.

T1 sequence (P42858 with tags, fused parts or gaps with the stated changes): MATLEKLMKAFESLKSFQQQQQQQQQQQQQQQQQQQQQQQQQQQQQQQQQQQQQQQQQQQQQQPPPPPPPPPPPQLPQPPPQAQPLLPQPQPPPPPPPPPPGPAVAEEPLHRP

With `COc1cnc(COc2ccc3c(c2)CN(c2ccc(=O)n(C)n2)C3=O)c(F)c1` [Compound 1-7, 5-[(3-Fluoro-5-methoxypyridin-2-yl)methoxy]-2-(1-methyl-6-oxo-1,6-dihydropyridazin-3-yl)-2,3-dihydro-1H-isoindol-1-one], in series [1], the “Mean Free Brain Fraction (%)” value worked out at 11.9%. Moreover, the concentration for half-maximal inhibition (IC50) in series [2] is less than 100 nM.
The matching figures for `Cn1nc(N2Cc3cc(OCc4ccc(F)cn4)ccc3C2=O)ccc1=O` [Compound 1-1, 5-((5-Fluoropyridin-2-yl)methoxy)-2-(1-methyl-6-oxo-1,6-dihydropyridazin-3-yl)isoindolin-1-one]: 12.0% and less than 100 nM.
The matching figures for `COc1ccc(COc2ccc3c(c2)CN(c2ccc(=O)n(C)n2)C3=O)nc1` [Compound 1-6, 5-[(5-Methoxypyridin-2-yl)methoxy]-2-(1-methyl-6-oxo-1,6-dihydropyridazin-3-yl)-2,3-dihydro-1H-isoindol-1-one]: 9.8% and less than 100 nM.
In the same order, the values of `COc1ccc(COc2ccc3c(c2)CN(c2ccc(=O)n(CCF)n2)C3=O)nc1` [Compound 8-2, 2-[1-(2-Fluoroethyl)-6-oxo-1,6-dihydropyridazin-3-yl]-5-[(5-methoxypyridin-2-yl)methoxy]-2,3-dihydro-1H-isoindol-1-one] are 9.0% and less than 100 nM.
In the case of `O=C1c2ccc(OCc3ccc(F)cn3)cc2CN1c1ccc(=O)[nH]n1` [Compound 9-1, 5-[(5-Fluoro-2-pyridyl)methoxy]-2-(6-oxo-1H-pyridazin-3-yl)isoindolin-1-one], in series [1], the “Mean Free Brain Fraction (%)” value is recorded as 6.7%. Besides, the IC50 in series [2] was less than 100 nM.
Consider `COc1ccc(COc2ccc3c(c2)CN(c2ccncc2)C3=O)nc1` [Compound 1-4, 5-[(5-Methoxypyridin-2-yl)methoxy]-2-(pyridin-4-yl)-2,3-dihydro-1H-isoindol-1-one], for which, in series [1], the “Mean Free Brain Fraction (%)” value came out at 3.0%. In addition, the IC50 in series [2] is less than 100 nM.
In the same order, the values of `COc1ccc(COc2ccc3c(c2)CN(c2ccc(=O)n(C)n2)C3=O)nc1F` [Compound 1-13, 5-[(6-Fluoro-5-methoxy-2-pyridyl)methoxy]-2-(1-methyl-6-oxo-pyridazin-3-yl)isoindolin-1-one] are 7.0% and less than 100 nM.
In the same order, the values of `COc1ccc(COc2cc3c(cc2F)C(=O)N(c2ccc(=O)[nH]n2)C3)nc1` [Compound 13-1, 6-Fluoro-5-((5-methoxypyridin-2-yl)methoxy)-2-(6-oxo-1,6-dihydropyridazin-3-yl)isoindolin-1-one] are 6.6% and less than 100 nM.
